Source: patent US8318781B2, “G-protein-conjugated receptor agonist” (Japan Science and Technology Agency, priority 2007, dated 2012)
Where two headings read alike, the source gives them in different places.

What was measured:
Format in all cases: cell-based
[1] = molecular target: T1, human GPR40 (hGPR40) (Homo sapiens, UniProt O14842); assay: Determination of intracellular Ca2+ concentration (FLIPR), cell line TXGPR40; conditions: for agonistic activity for GPR40 (in words): cells in which GPR40 has been transgenically expressed; for [Ca^2+]/GPR40 10 μM (ratio vs. LA): relative fluorescence intensity vs LA at 10 μM
T1 construct: expressed in transfected cells; doxycycline-inducible expression vector
Experimental: (§1) (1) In this test, The cell lines TXGPR40, TXGPR120 and GPR120/Flp-in were plated onto a collagen-coated black 96-well plate in 2×10^5 cells/well. The 96-well plates containing the cells were centrifuged and treated with Doxycycline (final concentration 10 μg/mL), incubated in a CO2 incubator for 21 hours, then used for assay.
(§2) (2) The ligand used in this test includes NCP04, NCP14, NCG20, NCG21, NCG22, NCG23, NCP02, NCP03, NCP05, NCP06, NCG14, NCG17, NCG19, NCG28, NCG29, NCG30, NCG31, NCG34, NCG35, NCG37, NCG38, NCG44, NCG45, NCG46, and NCG54. Each ligand was dissolved in DMSO and adjusted to the concentration of 10 mM, then diluted with Hanks' Balanced Salt Solution (pH 7.4) containing 20 mM HEPES (referred to as FLIPR buffer hereinafter) to the final concentration of 1 to 100 μM. 1% DMSO was used as the negative control, and LA was used as the positive control.
(§3) The ligands and controls were placed in different 96-well plates from the plates for the cells.
(§4) (3) The 96-well plate containing the cells was removed from the CO2 incubator. A fluorescent dye prepared in a twofold higher concentration (Ca Assay Kit Component A diluted with FLIPR Buffer) was added in 50 μL/well, then allowed to stand in the dark at room temperature for one hour.
(§5) (4) After one hour, the 96-well plate containing the cells and the 96-well plate in which ligands and controls were prepared were set on FLIPR (Fluorometric Imaging Plate Reader) for determination.
(§6) (5) Fluorometry using FLIPR was carried out at a laser output of 1.0 W for five minutes. […] after the start of the determination, the ligand (25 μL) was added dropwise to the cell plate at a rate of 50 μL/sec. The intensity of fluorescence was automatically digitized by the application program installed in the FLIPR from the image taken by the CCD camera (with exposure time of 0.40 sec). The interval of data sampling was one second for the initial one minute after the start of operation, and six seconds for the subsequent four minutes.
(§7) (6) The maximum fluorescence intensity was obtained from the data showing the change in the fluorescence intensity over time observed in each well. The maximum fluorescence intensity was plotted against ligand concentration, and pEC50 was calculated. The ratio of the fluorescence intensity for each ligand to LA at 10 μM was calculated as the relative intensity of each ligand.

[2] = molecular target: T2, human GPR120 (hGPR120) (Homo sapiens, UniProt Q5NUL3); assay: Determination of intracellular Ca2+ concentration (FLIPR), cell line TXGPR120; conditions: for agonistic activity for hGPR120 (in words): cells in which GPR120 has been transgenically expressed; for [Ca^2+]/GPR120 10 μM (ratio vs. LA): relative fluorescence intensity vs LA at 10 μM
T2 construct: expressed in transfected cells; doxycycline-inducible expression vector
T2 sequence (Q5NUL3 1-361): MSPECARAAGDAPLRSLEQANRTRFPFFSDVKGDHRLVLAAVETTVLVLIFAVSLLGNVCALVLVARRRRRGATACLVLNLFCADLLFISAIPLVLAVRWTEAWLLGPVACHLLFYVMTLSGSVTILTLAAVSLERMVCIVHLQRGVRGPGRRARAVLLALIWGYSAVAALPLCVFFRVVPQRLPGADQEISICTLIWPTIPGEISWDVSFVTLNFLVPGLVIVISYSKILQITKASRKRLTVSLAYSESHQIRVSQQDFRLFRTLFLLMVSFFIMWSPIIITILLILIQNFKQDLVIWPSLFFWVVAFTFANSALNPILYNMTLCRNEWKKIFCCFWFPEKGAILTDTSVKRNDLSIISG
Experimental: as §1, §2, §3, §4, §5, §6, §7

[3] = molecular target: T2, human GPR120 (hGPR120); assay: Determination of intracellular Ca2+ concentration (FLIPR), cell line GPR120/Flp-in; conditions: for [Ca^2+]/GPR120/Flp-In 10 μM (ratio vs. LA): relative fluorescence intensity vs LA at 10 μM
Experimental: as §1, §2, §3, §4, §5, §6, §7

[4] = molecular target: T2, human GPR120 (hGPR120); assay: ERK assay, screening for GPR120 ligands in cell line TXGPR120;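 as to ERK/GPR120 10 μM: signals normalized between DMSO and PMA controls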; conditions: for ERK activation for GPR120 (in words) / ERK/GPR120 10 μM / ERK/GPR120 100 μM: TXGPR120 cells; for ERK activation for GPR120 (in words): FIGS. 5-8; for ERK/GPR120 10 μM: ligand 10 μM; for ERK/GPR120 10 μM / ERK/GPR120 100 μM: class relative to LA; for ERK/GPR120 100 μM: ligand 100 μM
Experimental: (§8) This Test 1 was carried out by using the following materials and methods.
(§9) (1) In this test, the cell lines TXGPR40 and TXGPR120 were plated in 35-mm dishes in 5×10^5 cells/per dish.
(§10) Each ligand was dissolved in DMSO, diluted tenfold with the medium to make the total amount of 100 μl. DMSO was used as the negative control, and PMA (phorbol-12-myristate-13-acetate) was used as the positive control.
(§11) (3) The medium was removed from the dish of the cell to reduce the total amount of liquid to 0.9 ml.
(§12) (4) The ligand solution was added dropwise to the cell solution, and dispersed by gently shaking the dish, and allowed to react at room temperature.
(§13) (5) After 5 minutes of reaction, the medium was discarded, and the remaining medium on the dish was removed on ice using an aspirator.
(§14) (6) 150 μl of Lysis buffer (50 mM HEPES (pH 7.0), 150 mM NaCl, 10% glycerol, 1% NonidetP-40, 2 mM MgCl2, 1 mM EDTA, 100 mM NaF, 10 mM sodium phosphate, 1 mM Na3VO4, 20 mM β-glycerophosphate, and Proteinase inhibitor) were added, then the cells were collected using a cell scraper.
(§15) (1) The crude enzyme solution mixed with SDS Sample Buffer was subjected to ultrasonication with a sonifier, then incubated at 90° C. for five minutes.
(§16) (2) The mixture was vortexed and centrifuged at 15,000 rpm for five minutes at 4° C.
(§17) (3) The supernatant of the centrifuged sample was applied to two 7.5% acrylamide gel slabs placed in an electrophoresis tank filled with 1×SDS-PAGE Running Buffer (25 mM Tris, 0.2 M Glycin, and 1% SDS). Electrophoresis was carried out under a constant current of 40 mA for about 80 to 90 minutes.
(§18) (1) A PVDF membrane cut in the same size as the gel slab was immersed in methanol for about 15 seconds and then shaken in Transfer Buffer C solution (25 mM Tris, 0.02% SDS, 2% methanol and 40 mM 6-aminohexanoic acid) at room temperature to swell for 15 minutes. Filter paper for blotting was cut into a 10-cm square.
(§19) (2) On the blotting apparatus were placed sequentially two pieces of filter paper immersed in A solution (0.3 M Tris, 0.02% SDS and 2% methanol), two pieces of filter paper immersed in B solution (25 mM Tris, 0.02% SDS and 2% methanol), and the membrane thereon. The gel slab after electrophoresis, and finally two pieces of filter paper immersed in C solution was placed thereon, and the apparatus was closed.
(§20) (3) The protein was transferred to the membrane at 15 V for 30 minutes.
(§21) (1) The following procedure was all carried out at room temperature. After the protein transfer, the membrane was placed into a vial containing 1×TTBS (0.2 M Tris, 1.5 M NaCl, 0.2% Tween 20) and washed for 15 minutes.
(§22) (2) TTBS was discarded, and about 10 ml of Block Ace was added and blocked on a shaker for one hour.
(§23) (1) The primary antibodies (p44/42 MAP Kinase Antibody and Phospho-p44/42 MAP Kinase Antibody) were each diluted 1000-fold with TTBS.
(§24) (2) After blocking, the Block Ace solution was removed, the solution of the primary antibody was added and allowed to react on the shaker for two hours.
(§25) (1) The secondary antibody (Anti-rabbit Ig, Horseradish Peroxidase linked F(ab′)2 fragments) was diluted 5000-fold with TTBS.
(§26) (2) The primary antibody solution was removed and the membrane was washed three times on the shaker in TTBS for five to ten minutes each.
(§27) (3) TTBS was removed and the solution of secondary antibody was added and left for 1 hour on the shaker.
(§28) (1) 2 ml each of Detection Reagent 1 and Detection Reagent 2 from ECL kit were mixed together on ice.
(§29) (2) The solution of secondary antibody was removed from the membrane reacted with the secondary antibody and then washed three times on the shaker in TTBS for five minutes each.
(§30) (3) The liquid was thoroughly removed from the membrane, which was then placed in a plastic bag, and 2 ml of the Detection Reagent mixture was added per each membrane.
(§31) (4) The membrane was kept in contact with a film in the cassette for one to five minutes, and the film was developed using an automatic developing machine.

[5] = molecular target: T1, human GPR40 (hGPR40); assay: ERK assay, screening for GPR40 ligands in cell line TXGPR40; conditions: TXGPR40 cells; for ERK activation for GPR40 (in words): FIGS. 1-4; for ERK/GPR40 10 μM: ligand 10 μM; for ERK/GPR40 10 μM / ERK/GPR40 100 μM: class relative to LA; for ERK/GPR40 100 μM: ligand 100 μM
Experimental: as §8, §9, §10, §11, §12, §13, §14, §15, §16, §17, §18, §19, §20, §21, §22, §23, §24, §25, §26, §27, §28, §29, §30, §31

[6] = TXGPR40 cells, maximum fluorescence intensity vs ligand concentration, read-out: [Ca^2+]/GPR40 pEC50 (converted)
[7] = TXGPR120 cells, maximum fluorescence intensity vs ligand concentration, read-out: [Ca^2+]/GPR120 pEC50 (converted)
[8] = GPR120/Flp-in cells, maximum fluorescence intensity vs ligand concentration, read-out: [Ca^2+]/GPR120/Flp-In pEC50 (converted)

T1 sequence (O14842 whole entry): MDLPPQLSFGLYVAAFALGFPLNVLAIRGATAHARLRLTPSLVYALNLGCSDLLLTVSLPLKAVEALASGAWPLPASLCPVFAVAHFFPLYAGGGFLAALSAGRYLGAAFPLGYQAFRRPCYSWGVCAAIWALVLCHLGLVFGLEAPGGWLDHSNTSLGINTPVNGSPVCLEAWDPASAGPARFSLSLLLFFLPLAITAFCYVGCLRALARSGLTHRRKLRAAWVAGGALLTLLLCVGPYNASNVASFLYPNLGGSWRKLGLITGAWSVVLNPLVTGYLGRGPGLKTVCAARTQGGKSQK

SMILES | EC50 [1] [µM] | agonistic activity for GPR40 (in words) [1] | [Ca^2+]/GPR40 10 μM (ratio vs. LA) ([1]; TXGPR40 cells) | EC50 [2] [µM] | agonistic activity for hGPR120 (in words) [2] | [Ca^2+]/GPR120 10 μM (ratio vs. LA) ([2]; TXGPR120 cells) | EC50 [3] [µM] | [Ca^2+]/GPR120/Flp-In 10 μM (ratio vs. LA) ([3]; GPR120/Flp-in cells) | ERK activation for GPR120 (in words) [4] | ERK/GPR120 10 μM [4] | ERK/GPR120 100 μM [4] | ERK activation for GPR40 (in words) [5] | ERK/GPR40 10 μM [5] | ERK/GPR40 100 μM [5] | EC50 [1, 6] [µM] | selectivity between GPR40 and GPR120 (in words), from Tables 3 and 4 ([2]; GPR40 versus GPR120, Ca2+ and ERK results) | EC50 [2, 7] [µM] | EC50 [3, 8] [µM] | selectivity for GPR120 in ERK assay (in words) ([4]; GPR120 versus GPR40)
O=C(O)CCCc1ccc(OCCN(c2ccccc2)c2cc(Cl)ccn2)cc1 [NCG35] | 7.76 | showed a specific reactivity | 0.68 | 16.2 | exhibit a similar effect | 0.61 | 4.57 | 1.00 | strongly activate ERK | +++ (+++ denotes a higher value than LA) | +++ (+++ denotes a higher value than LA) | strongly activated ERK | +++ (+++ denotes a higher value than LA) | +++ (+++ denotes a higher value than LA) | – | – | – | – | –
COc1cccc(N(CCOc2ccc(CCCC(=O)O)cc2)c2ccccc2)n1 [NCG37] | – | – | 0.28 | – | exhibit a similar effect | 0.56 | – | 0.91 | strongly activate ERK | +++ (+++ denotes a higher value than LA) | +++ (+++ denotes a higher value than LA) | – | – | + (+ denotes 0 to 100% of LA) | 16.2 | acting relatively mildly for GPR40 but acting strongly for GPR120 | 17.8 | 3.47 | selective for GRP120
Cc1cccc(N(CCOc2ccc(CCCC(=O)O)cc2)c2ccccc2)n1 [NCG38] | 13.5 | showed a specific reactivity | 0.34 | 22.4 | exhibit a similar effect | 0.56 | 6.76 | 0.81 | strongly activate ERK | +++ (+++ denotes a higher value than LA) | +++ (+++ denotes a higher value than LA) | strongly activated ERK | ++ (++ denotes 50 to 100% of LA) | +++ (+++ denotes a higher value than LA) | – | – | – | – | –
O=C(O)CCCc1ccc(OCCN(c2ccccc2)c2ncccn2)cc1 [NCG44] | – | – | 0.01 | – | exhibit a similar effect | 0.49 | – | 0.85 | – | + (+ denotes 0 to 100% of LA) | ++ (++ denotes 50 to 100% of LA) | – | – | + (+ denotes 0 to 100% of LA) | – | – | 22.9 | 3.55 | –
CCN(CCOc1ccc(CCC(=O)O)cc1)c1ccccn1 [NCP02] | – | showed a specific reactivity | 1.47 | – | exhibit a similar effect | 0.00 | – | 0.45 | – | + (+ denotes 0 to 100% of LA) | + (+ denotes 0 to 100% of LA) | – | + (+ denotes 0 to 100% of LA) | +++ (+++ denotes a higher value than LA) | 3.39 | – | – | 15.5 | –
